{"source": "patent US7342124B2", "about": "“Synthetic techniques and intermediates for polyhydroxy dienyl lactones and mimics thereof” (The Trustees Of The University Of Pennsylvania, priority 2003, dated 2008)", "origin": "cited, not measured here", "key": {"[1]": {"test_system": "two-way mixed-lymphocyte reaction", "settings": "in vitro"}, "[2]": {"test_system": "murine splenocytes", "settings": "in vitro"}, "[3]": {"test_system": "graft-vs.-host splenomegaly response", "settings": "induced by injection of parental splenocytes into F1 recipient mice"}, "[4]": {"test_system": "cell development (M phase)", "settings": "by binding and stabilizing mitotic spindle microtubules"}, "[5]": {"test_system": "mitotic spindle microtubules", "settings": "compared with taxol"}}}
{"smiles": "C=C/C=C\\[C@H](C)[C@H](OC(N)=O)[C@@H](C)[C@H](O)[C@@H](C)C/C(C)=C\\[C@H](C)[C@@H](O)[C@@H](C)/C=C\\[C@@H](O)C[C@@H]1OC(=O)[C@H](C)[C@@H](O)[C@H]1C", "note": "[(+)-discodermolide]", "values": [{"measurement": "suppression of two-way mixed-lymphocyte reaction", "setting": "[1]", "result": "suppresses"}, {"measurement": "associated cytotoxicity", "setting": "[2]; at suppression of mixed-lymphocyte reaction and concanavalin A-induced mitogenesis", "result": "no associated cytotoxicity"}, {"measurement": "suppression of concanavalin A-induced mitogenesis", "setting": "[2]; murine splenocytes", "result": "suppresses"}, {"measurement": "suppression of graft-vs.-host splenomegaly response, relative potency", "setting": "[3]", "result": "potency intermediate between those of cyclosporin A and FK506"}, {"measurement": "cell cycle arrest", "setting": "[4]", "result": "arrests cell development at the M phase"}, {"measurement": "microtubule binding affinity relative to taxol", "setting": "[5]", "result": "much higher"}]}
